Assays:
[1] = molecular target: T1, ∆1-191 APC1 (∆1-191_APC1) (Homo sapiens, UniProt Q6NUK1); test: counter-exchange of internal ADP with external […]-ATP in proteoliposomes; format: biochemical; conditions: 2.5 mM internal ADP; 5 mM MgCl2 outside; pH 7.4, 20 °C
T1 construct: gene SLC25A24; carrier domain only, N-terminal truncation; His8-Factor Xa tag cut, primer adds TSED after IEGR; in liposomes
T1 sequence (Q6NUK1 191-477): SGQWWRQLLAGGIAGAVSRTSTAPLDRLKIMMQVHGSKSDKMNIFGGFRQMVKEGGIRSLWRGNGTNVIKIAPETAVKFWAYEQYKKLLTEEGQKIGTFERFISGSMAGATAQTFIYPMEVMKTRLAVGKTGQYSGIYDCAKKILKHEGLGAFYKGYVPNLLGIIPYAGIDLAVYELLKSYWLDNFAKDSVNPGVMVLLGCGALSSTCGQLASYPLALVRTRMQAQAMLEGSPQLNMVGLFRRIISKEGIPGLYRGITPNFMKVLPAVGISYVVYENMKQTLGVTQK

[2] = molecular target: T1, ∆1-191 APC1 (∆1-191_APC1); test: […]-ATP uptake into proteoliposomes, initial rates; format: biochemical; conditions: 1.5 μM external ATP exchanged for 2.5 mM internal ADP; 5 mM MgCl2 outside; pH 7.4, 20 °C; labelled compound
purified protein = substrate: Nc1ncnc2c1ncn2[C@@H]1O[C@H](COP(=O)(O)OP(=O)(O)OP(=O)(O)O)[C@@H](O)[C@H]1O; test: purified protein; format: biochemical, Homo sapiens; conditions: 4 mM total external CaCl2 (calcium-activated state), 2.5 mM internal ATP, 20 mM Tris-HCl pH 7.4, 20 °C, labelled compound

Question: Which “counter-exchange of internal ADP with external [14C]-ATP in proteoliposomes” value [1] does the source give for Nc1ncnc2c1ncn2[C@@H]1O[C@H](COP(=O)(O)OP(=O)(O)O)[C@@H](O)[C@H]1O [ADP] here?
Answer: hetero-exchange between ATP and ADP was monitored over a 15-minute time course

Question: For Nc1ncnc2c1ncn2[C@@H]1O[C@H](COP(=O)(O)OP(=O)(O)OP(=O)(O)O)[C@@H](O)[C@H]1O [ATP], which “[14C]-ATP uptake into proteoliposomes, initial rates” value [2] is on record?
Answer: uptake rate of ATP was highest in the presence of externally added magnesium

B1: full-length human mitochondrial ATP-Mg/Pi carrier isoform 1 (APC1; SCaMC1/SLC25A24) (Homo sapiens) (protein)
chain: MLRWLRDFVLPTAACQDAEQPTRYETLFQALDRNGDGVVDIGELQEGLRNLGIPLGQDAEEKIFTTGDVNKDGKLDFEEFMKYLKDHEKKMKLAFKSLDKNNDGKIEASEIVQSLQTLGLTISEQQAELILQSIDVDGTMTVDWNEWRDYFLFNPVTDIEEIIRFWKHSTGIDIGDSLTIPDEFTEDEKKSGQWWRQLLAGGIAGAVSRTSTAPLDRLKIMMQVHGSKSDKMNIFGGFRQMVKEGGIRSLWRGNGTNVIKIAPETAVKFWAYEQYKKLLTEEGQKIGTFERFISGSMAGATAQTFIYPMEVMKTRLAVGKTGQYSGIYDCAKKILKHEGLGAFYKGYVPNLLGIIPYAGIDLAVYELLKSYWLDNFAKDSVNPGVMVLLGCGALSSTCGQLASYPLALVRTRMQAQAMLEGSPQLNMVGLFRRIISKEGIPGLYRGITPNFMKVLPAVGISYVVYENMKQTLGVTQK
notes: full length, N-terminal His8 tag + Factor Xa site (IEGR), tag cut by factor Xa; codon-optimised, expressed in S. cerevisiae mitochondria; purified in LMNG, reconstituted in PC/cardiolipin liposomes
Question: B1 was tested. Which Km (purified protein) did it give?
Answer: 29 ± 8 µM

Reference: article PMC5369052, “Calcium regulation of the human mitochondrial ATP-Mg/Pi carrier SLC25A24 uses a locking pin mechanism” (Scientific Reports, 2017)
